In US12357679B2, “Albumin-based non-covalent complexes and methods of use thereof” (Spectral Platforms, Inc., priority 2015, dated 2025):
Values after ≈ are worked out from the molar mass of the structure shown.

Experiments:
[1] = test system: Candida albicans (ATCC 90028); conditions: C. albicans; cited from earlier work
C. glabrata (ATCC 2001) = conditions: cited from earlier work
[2] = test system: most gram positive organisms; conditions: cited from earlier work
[3] = ingestion of a 200 mg tablet, microcrystalline suspension in oil-wax base; cited from earlier work
[4] = cited from earlier work
S. aureus [5] = assay: Rapid MIC prediction with lycopene/HSA assay (UV-Vis absorbance after 30 min incubation); assay type: cell-based; conditions: Staphylococcus aureus, 0.5 h
Protocol: (§1) The present lycopene/HSA complexes were used to characterize the minimum inhibitory concentration (MIC) of antimicrobial compounds. A lycopene/HSA complex, prepared as described herein, was mixed with a series of samples that all had the same initial amount of S. aureus (200 CFU/mL of PHS), and which was incubated with a varying amount of vancomycin for 30 minutes. […] Upon the addition of the lycopene/HSA assay, aggregation of the lycopene/HSA increased in a manner that scales with S. aureus concentration (and thus on the vancomycin concentration). These changes were characterized via the changes in the UV-Vis spectrum, depicted at the bottom in FIG. 23. The chart on the top in FIG. 23 depicts the absorbance at 600 nm for these samples after another 18 hours of incubation. This absorbance was dominated by the pathogen concentration after 18 hours of growth.
(§2) FIG. 23. Rapid prediction of the MIC of S. aureus at 200 CFU/mL. […] Lycopene (1.125 mM), fucoxanthin (0.375 mM), additional vancomycin (so as to maintain the same concentration of vancomycin) and additional 3440 μl PBS (to bring the total volume to 6 ml) was added and the UV-Vis absorbance was measured. […] The chart on the top depicts the absorbance at 600 nm after 18 hour incubation at 37° C. […]

S. aureus [6] = assay: MIC by absorbance at 600 nm after 18 hour incubation; assay type: cell-based; conditions: Staphylococcus aureus; absorbance at 600 nm after 18 hour incubation at 37° C.; read-out: actual MIC (break point)
Protocol: as §1, §2

## C[C@@H]1[C@H](O)[C@@H](C)/C=C/C=C/C=C/C=C/C=C/C=C/C=C/[C@H](O[C@@H]2O[C@H](C)[C@@H](O)[C@H](N)[C@@H]2O)C[C@@H]2O[C@](O)(C[C@@H](O)C[C@@H](O)[C@H](O)CC[C@@H](O)C[C@@H](O)CC(=O)O[C@H]1C)C[C@H](O)[C@H]2C(=O)O [Amphotericin B]
[1]
  previously reported minimum inhibitory concentration MIC: about 0.5 μg/mL
C. glabrata (ATCC 2001)
  previously reported minimum inhibitory concentration MIC: about 0.5 μg/mL

## CC(C)/N=c1\cc2n(-c3ccc(Cl)cc3)c3ccccc3nc-2cc1Nc1ccc(Cl)cc1 [Clofazimine]
[2]
  MIC: about 0.4 μg/mL
[3]
  peak plasma concentration: 0.41 µg/mL
[4]
  water solubility: not water soluble

## CN[C@H](CC(C)C)C(=O)N[C@H]1C(=O)N[C@@H](CC(N)=O)C(=O)N[C@H]2C(=O)N[C@H]3C(=O)N[C@H](C(=O)N[C@H](C(=O)O)c4cc(O)cc(O)c4-c4cc3ccc4O)[C@H](O)c3ccc(c(Cl)c3)Oc3cc2cc(c3O[C@@H]2O[C@H](CO)[C@@H](O)[C@H](O)[C@H]2O[C@H]2C[C@](C)(N)[C@H](O)[C@H](C)O2)Oc2ccc(cc2Cl)[C@H]1O [vancomycin]
S. aureus [5]; read-out: predicted MIC
  MIC: ~0.6 µg/mL (≈ 0.414 µM)
S. aureus [5]; read-out: predicted MIC (break point)
  MIC: 200 µg/mL (≈ 138 µM)
S. aureus [6]
  MIC: 0.2 µg/mL (≈ 0.138 µM)
